Test results as given in patent US11746116B2, “Antibiotic resistance breakers” (KING'S COLLEGE LONDON, priority 2017, dated 2023).
Values after ≈ are worked out from the molar mass of the structure shown. Where two headings read alike, the source gives them in different places.

Columns and labels:
EMRSA15 = assay: MIC, microdilution broth method; format: cell-based, Staphylococcus aureus
VSE775 = assay: MIC, microdilution broth method; format: cell-based, Enterococcus faecalis; set-up: MIC, VSE775: unit not given beside the values
AYE = assay: MIC, microdilution broth method; format: cell-based, Acinetobacter baumannii
MSSA9144 = assay: MIC, microdilution broth method; format: cell-based, Staphylococcus aureus
VRE12201 = assay: MIC, microdilution broth method; format: cell-based, Enterococcus faecalis
EMRSA16 = assay: MIC, microdilution broth method; format: cell-based, Staphylococcus aureus
VRE12204 = assay: MIC, microdilution broth method; format: cell-based, Enterococcus faecium; conditions: in µg/mL; for MIC: VRE12204
[1] = tested on: multidrug resistant strains; assay: Reserpine growth assay in several multidrug resistant strains (FIG. 27); format: cell-based; conditions: compared to ML-83-009 or levofloxacin
Method: Reserpine was added at a final concentration of 10 μg/mL (made up at 40 μg/mL in TSB, 50 μL per well). The bacteria were added at an OD of 0.01 in TSB (100 μL/well). The plate was a normal clear plate as used for MICs. OD was read every 30 minutes for 9 hours (the literature states 7 hours, but this is strain-dependent).

PA13437 = assay: MIC, microdilution broth method; format: cell-based; conditions: for MIC: PA13437
KP13368 = assay: MIC, microdilution broth method; format: cell-based
EC12923 = assay: MIC, microdilution broth method; format: cell-based
PA01 = assay: MIC, microdilution broth method; format: cell-based, Pseudomonas aeruginosa
[2] = tested on: extended panel of MDR strains with known multiple target mutations; format: cell-based
Ab17978 = assay: MIC, microdilution broth method; format: cell-based
M6 = assay: MIC, microdilution broth method; format: cell-based
SE1 = format: cell-based, S. epidermidis
EF2 = assay: MIC, extended Gram-positive panel; format: cell-based, E.faecium
SA7 = assay: MIC, extended Gram-positive panel; format: cell-based, S. aureus
SA1 = assay: MIC, extended Gram-positive panel; format: cell-based, S. aureus
SA8 = assay: MIC, extended Gram-positive panel; format: cell-based, S. aureus
SA6 = assay: MIC, extended Gram-positive panel; format: cell-based, S. aureus
SA4 = assay: MIC, extended Gram-positive panel; format: cell-based, S. aureus
SA3 = format: cell-based, S. aureus
SA9 = format: cell-based, S. aureus
SA5 = format: cell-based, S. aureus
EMRSA 15 strain = assay: Reserpine (growth) assay for efflux; format: cell-based, Staphylococcus aureus; conditions: multidrug-resistant EMRSA 15 strain; compound 0.25×MIC, reserpine 10 μg/mL
MSSA 9144 strain = assay: Reserpine (growth) assay for efflux; format: cell-based, Staphylococcus aureus; conditions: multidrug-resistant MSSA 9144 strain; compound 0.25×MIC, reserpine 10 μg/mL
SA2 = assay: MIC, extended Gram-positive panel; format: cell-based, S. aureus
SA10 = assay: MIC, extended Gram-positive panel; format: cell-based, S. aureus
SH1 = assay: MIC, extended Gram-positive panel; format: cell-based, S. haemolyticus
EF1 = assay: MIC, extended Gram-positive panel; format: cell-based, E.faecalis
[3] = ESKAPE panel, Gram-positive, in µg/mL
[4] = ESKAPE panel, Gram-negative, in µg/mL
[5] = KP13368, Normal (no PMBN), in µg/mL
[6] = PA01, Normal (no PMBN), in µg/mL
[7] = Ab17978, Normal (no PMBN), in µg/mL

C[C@H]1COc2c(N3CC[C@@H](Nc4ncccn4)C3)c(F)cc3c(=O)c(C(=O)O)cn1c23 [KSN-L22]
MIC, EMRSA15 (EMRSA15; EMRSA15 (Table 16, role of the terminal pyrimidine ring), in µg/mL): 0.5-1
MIC, EMRSA15 (EMRSA15; [3]): 0.5
MIC (EMRSA15; Staphylococcus aureus, Staphylococcus aureus (EMRSA15), Gram-Positive (Table 14), read-out: MIC): 0.5 µg/mL (≈ 1.18 µM)
MIC (EMRSA15; Staphylococcus aureus, Staphylococcus aureus (EMRSA15), Table 12, read-out: MIC): 0.5 to 1 µg/mL (≈ 1.18 to 2.35 µM)
MIC, VSE775 (VSE775; ESKAPE panel, Gram-positive): 0.06
MIC (VSE775; Enterococcus faecalis, Enterococcus (VRE775), Gram-Positive, read-out: MIC): 0.06 µg/mL (≈ 0.141 µM)
MIC (AYE; Acinetobacter baumannii (AYE), Gram-Negative, read-out: MIC): 4 µg/mL (≈ 9.4 µM)
MIC, AYE (AYE; [4]): 4
MIC, MSSA9144 (MSSA9144; [3]): ≤0.03
MIC (MSSA9144; Staphylococcus aureus (MSSA9144), Gram-Positive, read-out: MIC): ≤ 0.03 µg/mL
MIC, VRE12201 (VRE12201; [3]): 0.06
MIC (VRE12201; Enterococcus faecalis, Enterococcus (VRE12201), Gram-Positive, read-out: MIC): 0.06 µg/mL (≈ 0.141 µM)
MIC, EMRSA16 (EMRSA16; EMRSA16 (Table 16, role of the terminal pyrimidine ring), in µg/mL): 1
MIC, EMRSA16 (EMRSA16; [3]): 1
MIC (EMRSA16; S. aureus EMRSA16, gyrA, 84:S => L, grlA, 80:S => F (Table 11)): 1
MIC (EMRSA16; Staphylococcus aureus (EMRSA16), Gram-Positive (Table 14)): 1 µg/mL (≈ 2.35 µM)
MIC (EMRSA16; Staphylococcus aureus (EMRSA16), Table 12, read-out: MIC): 1 µg/mL (≈ 2.35 µM)
MIC, VRE12204 (VRE12204; ESKAPE panel, Gram-positive): 1
efflux from the bacteria (reserpine growth assay) [1]: reduced efflux
MIC, PA13437 (PA13437; ESKAPE panel, Gram-negative): > 32 µg/mL
MIC, KP13368 (KP13368; ESKAPE panel, Gram-negative): 4 µg/mL (≈ 9.4 µM)
MIC (KP13368; Klebsiella pneumoniae (KP13368), Gram-Negative, read-out: MIC): 4 µg/mL (≈ 9.4 µM)
MIC, EC12923 (EC12923; [4]): 0.5
MIC (EC12923; Escherichia coli (EC12923), Gram-Negative, read-out: MIC): 0.5 µg/mL (≈ 1.18 µM)
MIC, PA01 (PA01; [4]): 4
MIC (PA01; Pseudomonas aeruginosa (PA01), Gram-Negative, read-out: MIC): 4 µg/mL (≈ 9.4 µM)
MIC ([2]; E. faecalis EF 602): 0.25 µg/mL (≈ 0.588 µM)
MIC ([2]; E. faecium EF 205): 0.12 µg/mL (≈ 0.282 µM)
MIC ([2]; S. aureus SA 046, gyrA, 84:S => L, grlA, 80:S => F): 1 µg/mL (≈ 2.35 µM)
MIC ([2]; S. aureus SA 105, gyrA, 84:S => L, grlA, 80:S => F): 1 µg/mL (≈ 2.35 µM)
MIC ([2]; S. aureus SA 215, gyrA, 84:S => L, grlA, 80:S => F): 1 µg/mL (≈ 2.35 µM)
MIC ([2]; S. aureus SA 275, gyrA, 84:S => V, grlA, 80:S => F): 1 µg/mL (≈ 2.35 µM)
MIC ([2]; S. aureus SA 318, gyrA, 84:S => L, grlA, 80:S => F): 1 µg/mL (≈ 2.35 µM)
MIC ([2]; S. aureus SA 388, gyrA, 84:S => L, grlA, 80:S => F): 1 µg/mL (≈ 2.35 µM)
MIC (Ab17978; Acinetobacter baumannii): 0.125 µg/mL (≈ 0.294 µM)
MIC, Ab17978 (Ab17978; [4]): 0.125
MIC, M6 (M6; [4]): 1
MIC (M6; Klebsiella pneumoniae (M6), Gram-Negative, read-out: MIC): 1 µg/mL (≈ 2.35 µM)

CCn1cc(C(=O)O)c(=O)c2cc(F)c(N3CCN(Cc4cccc5ccccc45)CC3)cc21 [ML-77-021]
MIC (EMRSA15; EMRSA15, in µg/mL): 2
Fold decrease (SE1): 1-4 fold
MIC (SE1; in µg/mL): 1
MIC (VSE775; VSE775, in µg/mL): 2
MIC (AYE; AYE, +PMBN, in µg/mL): >32
MIC (AYE; AYE, Normal (no PMBN), in µg/mL): >32
MIC (EF2; E.faecium EF2, in µg/mL): 2-4
Fold decrease (EF2; EF2, MIC of parent (CIP or NOR) versus ARB-linked derivative): ≥32 fold
MIC (SA7; S. aureus SA7, gyrA, 84:S => L, grlA, 80:S => F): 2 µg/mL (≈ 4.35 µM)
Fold decrease (SA7; SA7, MIC of parent (CIP or NOR) versus ARB-linked derivative): ≥64 fold
MIC (SA1; S. aureus SA1, gyrA, 84:S => L, grlA, 80:S => F): 4 µg/mL (≈ 8.7 µM)
Fold decrease (SA1; SA1, MIC of parent (CIP or NOR) versus ARB-linked derivative): ≥32 fold
MIC (SA8; S. aureus SA8, gyrA, 84:S => L, grlA, 80:S => F): 2 µg/mL (≈ 4.35 µM)
Fold decrease (SA8; SA8, MIC of parent (CIP or NOR) versus ARB-linked derivative): 64 fold
MIC (MSSA9144; MSSA9144, in µg/mL): 1
MIC (SA6; S. aureus SA6, gyrA, 84:S => V, grlA, 80:S => F): 2 µg/mL (≈ 4.35 µM)
Fold decrease (SA6; SA6, MIC of parent (CIP or NOR) versus ARB-linked derivative): ≥64 fold
MIC (VRE12201; VRE12201, in µg/mL): 4
MIC (SA4; S. aureus SA4, gyrA, 84:S => L, grlA, 80:S => F): 2 µg/mL (≈ 4.35 µM)
Fold decrease (SA4; SA4, MIC of parent (CIP or NOR) versus ARB-linked derivative): 32 fold
MIC (EMRSA16; EMRSA16, in µg/mL): 2
Fold decrease (SA3): 32 fold
MIC (SA3): 2 µg/mL (≈ 4.35 µM)
MIC (VRE12204): 2
MIC (SA9; S. aureus SA9, gyrA, 84:S => L, grlA, 80:S => F): 2 µg/mL (≈ 4.35 µM)
Fold decrease (SA9; SA9, MIC of parent (CIP or NOR) versus ARB-linked derivative): ≥64 fold
MIC (PA13437; +PMBN): > 32 µg/mL
MIC (PA13437; Normal (no PMBN)): > 32 µg/mL
Fold decrease (SA5): ≥64 fold
MIC (SA5): 2 µg/mL (≈ 4.35 µM)
MIC (KP13368; KP13368, +PMBN, in µg/mL): 4-8
MIC (KP13368; [5]): >32
efflux by the strain (reserpine assay) (EMRSA 15 strain): not effluxed
efflux by the strain (reserpine assay) (MSSA 9144 strain): not effluxed
MIC (SA2; S. aureus SA2): 1 µg/mL (≈ 2.18 µM)
Fold decrease (SA2; SA2, MIC of parent (CIP or NOR) versus ARB-linked derivative): 8-64 fold
MIC (SA10; S. aureus SA10, gyrA, 84:S => L, grlA, 80:S => F): 2 µg/mL (≈ 4.35 µM)
Fold decrease (SA10; SA10, MIC of parent (CIP or NOR) versus ARB-linked derivative): 64 fold
MIC (SH1; S. haemolyticus SH1): 4 µg/mL (≈ 8.7 µM)
Fold decrease (SH1; SH1, MIC of parent (CIP or NOR) versus ARB-linked derivative): 32 fold
MIC (PA01; PA01, +PMBN, in µg/mL): 0.06-0.25
MIC (PA01; [6]): >32
MIC (Ab17978; Ab17978, +PMBN, in µg/mL): 0.5
MIC (Ab17978; [7]): 32
MIC (EF1; E.faecalis EF1): 4 µg/mL (≈ 8.7 µM)
Fold decrease (EF1; EF1, MIC of parent (CIP or NOR) versus ARB-linked derivative): ≥32 fold
MIC (M6; M6, +PMBN, in µg/mL): 1-4
MIC (M6; M6, Normal (no PMBN), in µg/mL): 32

CCn1cc(C(=O)O)c(=O)c2cc(F)c(N3CCNCC3)cc21 [Norfloxacin, norfloxacin, reference compound]
MIC (VSE775; VSE775, in µg/mL): 8
MIC (MSSA9144; MSSA9144, in µg/mL): 2
MIC (VRE12201; VRE12201, in µg/mL): 4
MIC (VRE12204): 4
MIC (KP13368; [5]): 4
efflux by the strain (reserpine assay) (EMRSA 15 strain): effluxed
efflux by the strain (reserpine assay) (MSSA 9144 strain): effluxed
MIC (PA01; [6]): 2
MIC (Ab17978; [7]): 4
MIC (M6; M6, Normal (no PMBN), in µg/mL): 0.25
